Measured values: patent publication EP4813999A1, “NOVEL PEPTIDE DERIVATIVE AND PHARMACEUTICAL COMPOSITION FOR PREVENTING OR TREATING MACULAR DEGENERATION COMPRISING SAME” (Supadelixir Inc., priority 2023, dated 2026)

What was measured:
[1] = system: VE-cadherin and ZO-1; experiment: Expression levels and patterns of junctional proteins (immunofluorescence); assay type: cell-based, human; conditions: HUVECs; VEGF 50 ng/mL, 90 minutes; test substance 10 and 100 nM
Excerpt: Whether the test substance (SE101B2L) could regulate changes in permeability caused by VEGF-induced changes in membrane protein stability of vascular endothelial cells was confirmed. Expression levels and patterns of VE-cadherin and ZO-1, which are junctional proteins associated with vascular stability and permeability and connect cells to one another, were confirmed. One circular coverslip having a diameter of 12 mm was placed in each well of a 24-well plate, and gelatin was applied using a 2% gelatin solution to facilitate cell attachment. Into the prepared wells, 1 × 10^5 HUVECs were seeded per well. The cells were cultured in an incubator with 5% CO2 at 37°C for 4 days, with the growth medium replaced every other day. After confirming that the cells had become completely confluent, the cells were incubated for 1 hour using serum-free CEFOgro-HUVEC medium. At this time, the test substance was added to the corresponding wells to final concentrations of 10 and 100 nM. Upon completion of the incubation, VEGF at a final concentration of 50 ng/mL was added, followed by incubation for an additional 90 minutes. The incubated samples were fixed at room temperature for 15 minutes using a 10% formalin solution. […] The corresponding samples were photographed under a fluorescence microscope.

[2] = system: AKT and ERK; experiment: VEGF-induced phosphorylation of AKT and ERK (immunoblot); assay type: cell-based, human; conditions: HUVECs; VEGF co-treatment; test substance 0.1, 1, 10, 100 nM; 10 minutes
Protocol: The experiment was conducted by dividing the groups into an untreated group, a group treated with VEGF alone, and a group co-treated with VEGF and the test substance (SE101B2L).
Additionally, whether the test substance could regulate the phosphorylation levels of AKT and ERK molecules, which are important in signaling related to VEGF-induced angiogenesis, was tested. Into a 6-well plate containing 2 ml of growth medium, 2 × 10^5 HUVECs were added and seeded, followed by incubation in an incubator with 5% CO2 at 37°C for one day. Subsequently, after washing the cells with phosphate-buffered saline (PBS), incubation was performed for an additional 6 hours using CEFOgro-HUVEC medium containing 1% fetal bovine serum. The prepared cells were divided into an untreated group, a group treated with VEGF alone, and groups co-treated with VEGF and the test substance (0.1, 1, 10, and 100 nM), followed by treatment with the test substance. […] Protein amounts of the cell lysates were measured by a Bradford assay, followed by separation using sodium dodecyl sulfate-polyacrylamide gel electrophoresis (SDS-PAGE). […]

[3] = system: ARPE19 cells; experiment: Hydrogen peroxide-induced cellular senescence (SA-β-Gal activity staining); assay type: cell-based, Human; conditions: 200 µM hydrogen peroxide, test substance 0.01, 0.1, 1 µM, 24 hours
Protocol: Human retinal pigment epithelial cells (ARPE19) were cultured in a humidified incubator with 5% CO2 at 37°C. DMEM/F12 (Gibco) containing 10% fetal bovine serum and penicillin (100 U/ml)/streptomycin ([…]) was used as medium. The cells were cultured with the medium replaced with fresh medium every other day and were passaged using 0.25% trypsin containing 0.02% ethylenediaminetetraacetic acid (EDTA).
After cellular senescence caused by oxidative stress was promoted in ARPE19 cells using hydrogen peroxide (H2O2), the test substance (SE101B2L) was added at varying concentrations to evaluate inhibitory effects against cellular senescence. Inhibitory activity against cellular senescence was evaluated using senescence-associated β-galactosidase (SA-β-Gal) activity staining, which is well known as a marker for cellular senescence.
ARPE19 cells were seeded into a 96-well plate at 1 × 10^5 cells/well and cultured in an incubator with 5% CO2 at 37°C for 24 hours. […] Cells stained blue were observed under an optical microscope, and the degree of SA-β-gal activity was expressed as a percentage by measuring the number of cells stained blue in the cytoplasm among a total of 50 to 100 cells. The degree of senescence was quantified through measurement.

Substance: decylbenzoyl-Cys-Phe-Lys-amide [SE101B2L]
- expression levels and patterns of junctional proteins between cells (VE-cadherin, ZO-1) [1]: appear similarly to those of the untreated group in a concentration-dependent manner
- phosphorylation levels of signaling molecules (AKT, ERK) [2]: reduced by the test substance in a concentration-dependent manner
- SA-β-gal activity [3]: decreases SA-β-gal activity in a concentration-dependent manner
